Test results: patent US20240108702A1, “Use Of Naturally Occurring Cyclic Peptides For Treatment Of SARS-COV-2 Infection” (The University of Southern California, priority 2021, published 2024)
Like-named read-outs stand apart in the source and are kept apart here. Where a SMILES comes first, the peptide text is derived from it. Bridges are numbered along the chain shown (N, C = ends).

Details: for LOAEL: i.v.
[1] = female rats, 5 mg/kg/day, Day 8, median
[2] = female rats, 10 mg/kg/day, Day 8, median
[3] = female rats, 20 mg/kg, Day 2, median
[4] = male rats, 5 mg/kg/day, Day 8, median
[5] = male rats, 10 mg/kg/day, Day 8, median
[6] = male rats, 20 mg/kg, Day 2, median

CC[C@H](C)[C@@H]1NC(=O)[C@@H]2CSSC[C@H](NC(=O)[C@H](CCCNC(=N)N)NC(=O)[C@@H]3CSSC[C@H](NC1=O)C(=O)N[C@@H]([C@@H](C)O)C(=O)N[C@@H](CCCNC(=N)N)C(=O)NCC(=O)N[C@@H](Cc1ccccc1)C(=O)N3)C(=O)N[C@@H](CC(C)C)C(=O)N[C@H]1CSSC[C@H](NC(=O)[C@H](C(C)C)NC(=O)CNC(=O)[C@H](CCCNC(=N)N)NC(=O)[C@H](CCCNC(=N)N)NC1=O)C(=O)N[C@@H](CCCNC(=N)N)C(=O)N2 [Peptide 1] (cyclo(GFCRCLCRRGVCRCICTR); disulfide 3-16, 5-14, 7-12)
LOAEL (Sprague-Dawley rats, study duration 7 days (Table 8)): 20 mg/kg/day
mortality (determined unrelated to treatment) (female rats, 5 mg/kg dose group, found dead Day 15): 1 out of 16
A/G [1]: 2.10
ALP [1]: 92.0 U/L
ALT [1]: 35.0 U/L
APTT [1]: 10.6 s
AST [1]: 139.0 U/L
Albumin [1]: 3.9 g/dL
Basophils [1]: 0.3%
Basophils absolute [1]: 0.02 10^3/mm^3
CK [1]: 792 U/L
Calcium [1]: 9.80 mg/dL
Chloride [1]: 105.0 mmol/L
Cholesterol [1]: 55.0 mg/dL
Creatinine [1]: 0.3 mg/dL
Eosinophils [1]: 3.6%
Eosinophils absolute [1]: 0.30 10^3/mm^3
Fibrinogen [1]: 223 mg/dL
GGT [1]: 0.0 U/L
Globulin [1]: 1.8 g/dL
Glucose [1]: 97 mg/dL
HDW [1]: 2.37 g/dL
Hct [1]: 40.5%
Hemoglobin [1]: 13.5 g/dL
K [1]: 4.9 mmol/L
LUC [1]: 0.3%
LUC absolute [1]: 0.02 10^3/mm^3
Lymphocyte absolute [1]: 4.78 10^3/mm^3
Lymphocytes [1]: 68.1%
MCH [1]: 19.1 pg
MCHC [1]: 33.4 g/dL
MCV [1]: 57.9 fL
Monocyte absolute [1]: 0.17 10^3/mm^3
Monocytes [1]: 2.6%
Na [1]: 143 mmol/L
Neutrophil absolute [1]: 1.33 10^3/mm^3
Neutrophils [1]: 26.7%
PT [1]: 16.3 s
Phos [1]: 7.3 mg/dL
Platelets [1]: 801 10^3/mm^3
RBC [1]: 6.88 10^6/mm^3
RDW [1]: 12.7%
Reticulocytes [1]: 3.9%
Reticulocytes absolute [1]: 256.7 10^3/mm^3
T-Bil [1]: 0.00 mg/dL
TP [1]: 5.8 g/dL
Triglycerides [1]: 25 mg/dL
Urea N [1]: 20 mg/dL
WBC [1]: 6.50 10^3/mm^3
A/G [2]: 2.15
ALP [2]: 109.5 U/L
ALT [2]: 32.5 U/L
APTT [2]: 10.9 s
AST [2]: 122.0 U/L
Albumin [2]: 3.9 g/dL
Basophils [2]: 0.4%
Basophils absolute [2]: 0.04 10^3/mm^3
CK [2]: 474 U/L
Calcium [2]: 9.95 mg/dL
Chloride [2]: 105.0 mmol/L
Cholesterol [2]: 55.0 mg/dL
Creatinine [2]: 0.3 mg/dL
Eosinophils [2]: 3.3%
Eosinophils absolute [2]: 0.33 10^3/mm^3
Fibrinogen [2]: 283 mg/dL
GGT [2]: 0.0 U/L
Globulin [2]: 1.8 g/dL
Glucose [2]: 99 mg/dL
HDW [2]: 2.45 g/dL
Hct [2]: 41.2%
Hemoglobin [2]: 13.7 g/dL
K [2]: 5.05 mmol/L
LUC [2]: 0.35%
LUC absolute [2]: 0.04 10^3/mm^3
Lymphocyte absolute [2]: 7.13 10^3/mm^3
Lymphocytes [2]: 72.0%
MCH [2]: 19.0 pg
MCHC [2]: 33.3 g/dL
MCV [2]: 57.3 fL
Monocyte absolute [2]: 0.39 10^3/mm^3
Monocytes [2]: 3.5%
Na [2]: 142.5 mmol/L
Neutrophil absolute [2]: 2.18 10^3/mm^3
Neutrophils [2]: 19.9%
PT [2]: 17.1 s
Phos [2]: 7.05 mg/dL
Platelets [2]: 939 10^3/mm^3
RBC [2]: 7.21 10^6/mm^3
RDW [2]: 13.0%
Reticulocytes [2]: 4.1%
Reticulocytes absolute [2]: 277.3 10^3/mm^3
T-Bil [2]: 0.00 mg/dL
TP [2]: 5.7 g/dL
Triglycerides [2]: 26 mg/dL
Urea N [2]: 21 mg/dL
WBC [2]: 10.75 10^3/mm^3
A/G [3]: 3.00
ALP [3]: 142.0 U/L
ALT [3]: 62.0 U/L
APTT [3]: 29.2 s
AST [3]: 397.0 U/L
Albumin [3]: 3.0 g/dL
Basophils [3]: 0.5%
Basophils absolute [3]: 0.06 10^3/mm^3
CK [3]: 1,506 U/L
Calcium [3]: 10.30 mg/dL
Chloride [3]: 104.0 mmol/L
Cholesterol [3]: 52.0 mg/dL
Creatinine [3]: 0.5 mg/dL
Eosinophils [3]: 1.5%
Eosinophils absolute [3]: 0.13 10^3/mm^3
Fibrinogen [3]: 83 mg/dL
GGT [3]: 4.0 U/L
Globulin [3]: 1.0 g/dL
Glucose [3]: 218 mg/dL
HDW [3]: 2.37 g/dL
Hct [3]: 46.9%
Hemoglobin [3]: 15.2 g/dL
K [3]: 4.9 mmol/L
LUC [3]: 0.5%
LUC absolute [3]: 0.05 10^3/mm^3
Lymphocyte absolute [3]: 5.56 10^3/mm^3
Lymphocytes [3]: 60.5%
MCH [3]: 19.6 pg
MCHC [3]: 32.3 g/dL
MCV [3]: 61.0 fL
Monocyte absolute [3]: 0.33 10^3/mm^3
Monocytes [3]: 3.8%
Na [3]: 141 mmol/L
Neutrophil absolute [3]: 2.55 10^3/mm^3
Neutrophils [3]: 33.6%
PT [3]: 23.5 s
Phos [3]: 9.3 mg/dL
Platelets [3]: 604 10^3/mm^3
RBC [3]: 7.63 10^6/mm^3
RDW [3]: 12.2%
Reticulocytes [3]: 5.3%
Reticulocytes absolute [3]: 326.0 10^3/mm^3
T-Bil [3]: 0.00 mg/dL
TP [3]: 3.90 g/dL
Triglycerides [3]: 106 mg/dL
Urea N [3]: 20 mg/dL
WBC [3]: 8.15 10^3/mm^3
microscopic findings, liver (female rats, 5 and 10 mg/kg/day, end of treatment, non-adverse, recoverable): minimal to mild liver necrosis
microscopic findings, adrenal (male and female rats, 20 mg/kg): Mild to severe adrenal necrosis
body weight (male and female rats, 20 mg/kg dosing group): significant decreases in body weights
A/G [4]: 2.2
ALP [4]: 212.0 U/L
ALT [4]: 40.0 U/L
APTT [4]: 14.8 s
AST [4]: 133.0 U/L
Albumin [4]: 3.8 g/dL
Basophils [4]: 0.3%
Basophils absolute [4]: 0.03 10^3/mm^3
CK [4]: 766 U/L
Calcium [4]: 9.75 mg/dL
Chloride [4]: 104.5 mmol/L
Cholesterol [4]: 70.5 mg/dL
Creatinine [4]: 0.2 mg/dL
Eosinophils [4]: 3.9%
Eosinophils absolute [4]: 0.37 10^3/mm^3
Fibrinogen [4]: 263 mg/dL
GGT [4]: 0.0 U/L
Globulin [4]: 1.7 g/dL
Glucose [4]: 73 mg/dL
HDW [4]: 2.30 g/dL
Hct [4]: 43.8%
Hemoglobin [4]: 14.1 g/dL
K [4]: 5.15 mmol/L
LUC [4]: 0.3%
LUC absolute [4]: 0.03 10^3/mm^3
Lymphocyte absolute [4]: 6.03 10^3/mm^3
Lymphocytes [4]: 71.8%
MCH [4]: 20.0 pg
MCHC [4]: 32.1 g/dL
MCV [4]: 61.8 fL
Monocyte absolute [4]: 0.22 10^3/mm^3
Monocytes [4]: 2.9%
Na [4]: 144 mmol/L
Neutrophil absolute [4]: 2.04 10^3/mm^3
Neutrophils [4]: 20.2%
PT [4]: 16.0 s
Phos [4]: 8.45 mg/dL
Platelets [4]: 1,052 10^3/mm^3
RBC [4]: 7.06 10^6/mm^3
RDW [4]: 14.0%
Reticulocytes [4]: 5.2%
Reticulocytes absolute [4]: 359.7 10^3/mm^3
T-Bil [4]: 0.00 mg/dL
TP [4]: 5.5 g/dL
Triglycerides [4]: 37 mg/dL
Urea N [4]: 16.5 mg/dL
WBC [4]: 8.40 10^3/mm^3
A/G [5]: 2.35
ALP [5]: 212.5 U/L
ALT [5]: 32.5 U/L
APTT [5]: 14.6 s
AST [5]: 113.5 U/L
Albumin [5]: 3.7 g/dL
Basophils [5]: 0.3%
Basophils absolute [5]: 0.03 10^3/mm^3
CK [5]: 613 U/L
Calcium [5]: 9.70 mg/dL
Chloride [5]: 105.0 mmol/L
Cholesterol [5]: 66.0 mg/dL
Creatinine [5]: 0.3 mg/dL
Eosinophils [5]: 3.0%
Eosinophils absolute [5]: 0.31 10^3/mm^3
Fibrinogen [5]: 261 mg/dL
GGT [5]: 0.0 U/L
Globulin [5]: 1.6 g/dL
Glucose [5]: 83 mg/dL
HDW [5]: 2.20 g/dL
Hct [5]: 43.7%
Hemoglobin [5]: 14.2 g/dL
K [5]: 5.1 mmol/L
LUC [5]: 0.3%
LUC absolute [5]: 0.03 10^3/mm^3
Lymphocyte absolute [5]: 6.69 10^3/mm^3
Lymphocytes [5]: 70.9%
MCH [5]: 20.2 pg
MCHC [5]: 32.4 g/dL
MCV [5]: 62.6 fL
Monocyte absolute [5]: 0.28 10^3/mm^3
Monocytes [5]: 2.7%
Na [5]: 144 mmol/L
Neutrophil absolute [5]: 1.85 10^3/mm^3
Neutrophils [5]: 22.6%
PT [5]: 17.5 s
Phos [5]: 8.6 mg/dL
Platelets [5]: 1,086 10^3/mm^3
RBC [5]: 7.06 10^6/mm^3
RDW [5]: 13.1%
Reticulocytes [5]: 4.6%
Reticulocytes absolute [5]: 314.2 10^3/mm^3
T-Bil [5]: 0.00 mg/dL
TP [5]: 5.35 g/dL
Triglycerides [5]: 29 mg/dL
Urea N [5]: 19.0 mg/dL
WBC [5]: 10.05 10^3/mm^3
A/G [6]: 2.70
ALP [6]: 232.0 U/L
ALT [6]: 74.0 U/L
APTT [6]: 18.5 s
AST [6]: 245.0 U/L
Albumin [6]: 2.7 g/dL
Basophils [6]: 0.2%
Basophils absolute [6]: 0.03 10^3/mm^3
CK [6]: 707 U/L
Calcium [6]: 9.40 mg/dL
Chloride [6]: 101.0 mmol/L
Cholesterol [6]: 67.0 mg/dL
Creatinine [6]: 0.4 mg/dL
Eosinophils [6]: 1.1%
Eosinophils absolute [6]: 0.15 10^3/mm^3
Fibrinogen [6]: 98 mg/dL
GGT [6]: 0.0 U/L
Globulin [6]: 1.0 g/dL
Glucose [6]: 175 mg/dL
HDW [6]: 2.44 g/dL
Hct [6]: 37.3%
Hemoglobin [6]: 12.1 g/dL
K [6]: 5.1 mmol/L
LUC [6]: 0.5%
LUC absolute [6]: 0.07 10^3/mm^3
Lymphocyte absolute [6]: 4.24 10^3/mm^3
Lymphocytes [6]: 30.9%
MCH [6]: 20.0 pg
MCHC [6]: 31.8 g/dL
MCV [6]: 62.5 fL
Monocyte absolute [6]: 0.93 10^3/mm^3
Monocytes [6]: 8.1%
Na [6]: 140 mmol/L
Neutrophil absolute [6]: 8.40 10^3/mm^3
Neutrophils [6]: 61.1%
PT [6]: 21.3 s
Phos [6]: 9.3 mg/dL
Platelets [6]: 728 10^3/mm^3
RBC [6]: 6.04 10^6/mm^3
RDW [6]: 14.3%
Reticulocytes [6]: 6.4%
Reticulocytes absolute [6]: 373.3 10^3/mm^3
T-Bil [6]: 0.10 mg/dL
TP [6]: 3.7 g/dL
Triglycerides [6]: 193 mg/dL
Urea N [6]: 28 mg/dL
WBC [6]: 13.70 10^3/mm^3
microscopic findings, liver (male rats, 20 mg/kg, adverse): minimal to moderate liver necrosis
LOAEL (rats): 20 mg/kg
clinical signs (rats, once daily i.v. infusion 5 and 10 mg/kg/day, temporary, resolved in recovery): non-adverse, treatment-related clinical signs
acute, treatment-related mortality (rats, single i.v. 20 mg/kg, Day 1): 5 out of 12
